Assay results published in patent US20230117470A1, “SUBSTITUTED PYRAZOLE COMPOUNDS AS TOLL RECEPTOR INHIBITORS” (BRISTOL-MYERS SQUIBB COMPANY, priority 2019, published 2023).

Assays:
Assay type in all cases: cell-based
human TLR7 = target: T1, human TLR7 (Homo sapiens, UniProt Q9NYK1); test: TLR7 inhibition reporter assay (HEK-Blue cells, SEAP reporter, gardiquimod stimulation); conditions: HEK-Blue cells overexpressing human TLR7, SEAP reporter, gardiquimod 7.5 μM
T1 construct: host or cells: HEK-Blue cells
T1 sequence (Q9NYK1 27-1049): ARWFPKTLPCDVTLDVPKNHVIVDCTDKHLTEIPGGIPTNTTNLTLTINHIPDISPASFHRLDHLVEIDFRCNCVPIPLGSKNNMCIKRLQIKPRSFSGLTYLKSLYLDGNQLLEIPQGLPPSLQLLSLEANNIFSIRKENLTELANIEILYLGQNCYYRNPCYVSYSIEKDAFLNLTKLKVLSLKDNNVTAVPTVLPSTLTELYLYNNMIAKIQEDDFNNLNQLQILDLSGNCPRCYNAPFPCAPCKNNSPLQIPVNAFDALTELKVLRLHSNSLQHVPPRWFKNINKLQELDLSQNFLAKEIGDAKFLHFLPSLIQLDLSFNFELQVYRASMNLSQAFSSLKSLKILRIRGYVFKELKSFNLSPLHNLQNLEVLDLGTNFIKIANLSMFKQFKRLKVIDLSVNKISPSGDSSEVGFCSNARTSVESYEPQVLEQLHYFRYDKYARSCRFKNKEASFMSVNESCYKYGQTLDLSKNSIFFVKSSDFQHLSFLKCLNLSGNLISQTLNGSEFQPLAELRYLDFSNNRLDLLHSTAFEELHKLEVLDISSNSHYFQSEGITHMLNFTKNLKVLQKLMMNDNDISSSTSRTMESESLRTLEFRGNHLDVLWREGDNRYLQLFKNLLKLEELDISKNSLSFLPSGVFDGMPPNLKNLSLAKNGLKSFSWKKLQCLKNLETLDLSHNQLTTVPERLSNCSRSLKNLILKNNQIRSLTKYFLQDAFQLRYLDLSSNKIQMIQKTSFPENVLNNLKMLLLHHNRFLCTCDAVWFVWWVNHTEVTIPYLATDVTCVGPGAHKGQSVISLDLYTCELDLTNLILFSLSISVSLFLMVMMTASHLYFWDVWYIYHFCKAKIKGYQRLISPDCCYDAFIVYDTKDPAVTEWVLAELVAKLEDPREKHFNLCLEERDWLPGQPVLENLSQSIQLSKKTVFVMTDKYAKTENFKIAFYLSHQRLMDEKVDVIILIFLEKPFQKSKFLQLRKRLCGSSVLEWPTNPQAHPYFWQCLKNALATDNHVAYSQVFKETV
Summary of the method: (§1)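 Percent inhibition of agonist-induced SEAP, set between agonist+DMSO wells and known-inhibitor wells, after 22 h at 37° C. Compounds (0.05 nM-50 μM final) were added 30 min at room temperature before ligand: gardiquimod 7.5 μM for TLR7, R848 15.9 μM for TLR8, ODN2006 5 nM for TLR9. Human receptors overexpressed in HEK-Blue reporter cells.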

human TLR8 = target: T2, human TLR8 (Homo sapiens, UniProt Q9NR97); test: TLR8 inhibition reporter assay (HEK-Blue cells, SEAP reporter, R848 stimulation); conditions: HEK-Blue cells overexpressing human TLR8, SEAP reporter, R848 15.9 μM
T2 construct: host or cells: HEK-Blue cells
T2 sequence (Q9NR97 27-1041): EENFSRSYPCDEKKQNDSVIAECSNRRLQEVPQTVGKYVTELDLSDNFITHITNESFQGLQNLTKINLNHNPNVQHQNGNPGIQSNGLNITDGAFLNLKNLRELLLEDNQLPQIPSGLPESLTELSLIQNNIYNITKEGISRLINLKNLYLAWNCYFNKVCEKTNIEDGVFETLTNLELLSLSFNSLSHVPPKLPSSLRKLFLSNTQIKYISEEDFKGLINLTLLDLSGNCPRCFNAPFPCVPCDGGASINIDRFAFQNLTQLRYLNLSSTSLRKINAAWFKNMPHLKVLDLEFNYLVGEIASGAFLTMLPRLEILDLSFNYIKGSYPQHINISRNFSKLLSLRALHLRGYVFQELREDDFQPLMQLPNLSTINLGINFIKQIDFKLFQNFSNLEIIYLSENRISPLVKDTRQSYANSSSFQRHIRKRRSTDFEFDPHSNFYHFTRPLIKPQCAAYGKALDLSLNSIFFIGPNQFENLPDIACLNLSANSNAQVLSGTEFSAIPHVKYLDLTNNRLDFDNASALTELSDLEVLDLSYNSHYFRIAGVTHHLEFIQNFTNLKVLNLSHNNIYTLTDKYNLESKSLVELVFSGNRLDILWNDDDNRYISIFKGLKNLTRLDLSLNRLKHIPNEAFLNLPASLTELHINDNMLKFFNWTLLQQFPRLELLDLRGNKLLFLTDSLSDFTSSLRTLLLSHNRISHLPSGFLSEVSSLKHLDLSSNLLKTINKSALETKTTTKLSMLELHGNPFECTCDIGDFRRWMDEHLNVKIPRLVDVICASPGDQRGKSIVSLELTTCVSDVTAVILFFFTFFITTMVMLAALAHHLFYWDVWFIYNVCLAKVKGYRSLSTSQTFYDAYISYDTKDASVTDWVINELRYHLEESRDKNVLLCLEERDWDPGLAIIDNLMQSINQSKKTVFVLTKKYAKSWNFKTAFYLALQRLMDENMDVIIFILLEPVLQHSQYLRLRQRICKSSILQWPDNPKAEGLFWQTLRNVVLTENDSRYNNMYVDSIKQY
Summary of the method: as §1

human TLR9 = target: T3, human TLR9 (Homo sapiens, UniProt Q9NR96); test: TLR9 inhibition reporter assay (HEK-Blue cells, SEAP reporter, ODN2006 stimulation); conditions: HEK-Blue cells overexpressing human TLR9, SEAP reporter, ODN2006 5 nM
T3 construct: host or cells: HEK-Blue cells
T3 sequence (Q9NR96 26-1032): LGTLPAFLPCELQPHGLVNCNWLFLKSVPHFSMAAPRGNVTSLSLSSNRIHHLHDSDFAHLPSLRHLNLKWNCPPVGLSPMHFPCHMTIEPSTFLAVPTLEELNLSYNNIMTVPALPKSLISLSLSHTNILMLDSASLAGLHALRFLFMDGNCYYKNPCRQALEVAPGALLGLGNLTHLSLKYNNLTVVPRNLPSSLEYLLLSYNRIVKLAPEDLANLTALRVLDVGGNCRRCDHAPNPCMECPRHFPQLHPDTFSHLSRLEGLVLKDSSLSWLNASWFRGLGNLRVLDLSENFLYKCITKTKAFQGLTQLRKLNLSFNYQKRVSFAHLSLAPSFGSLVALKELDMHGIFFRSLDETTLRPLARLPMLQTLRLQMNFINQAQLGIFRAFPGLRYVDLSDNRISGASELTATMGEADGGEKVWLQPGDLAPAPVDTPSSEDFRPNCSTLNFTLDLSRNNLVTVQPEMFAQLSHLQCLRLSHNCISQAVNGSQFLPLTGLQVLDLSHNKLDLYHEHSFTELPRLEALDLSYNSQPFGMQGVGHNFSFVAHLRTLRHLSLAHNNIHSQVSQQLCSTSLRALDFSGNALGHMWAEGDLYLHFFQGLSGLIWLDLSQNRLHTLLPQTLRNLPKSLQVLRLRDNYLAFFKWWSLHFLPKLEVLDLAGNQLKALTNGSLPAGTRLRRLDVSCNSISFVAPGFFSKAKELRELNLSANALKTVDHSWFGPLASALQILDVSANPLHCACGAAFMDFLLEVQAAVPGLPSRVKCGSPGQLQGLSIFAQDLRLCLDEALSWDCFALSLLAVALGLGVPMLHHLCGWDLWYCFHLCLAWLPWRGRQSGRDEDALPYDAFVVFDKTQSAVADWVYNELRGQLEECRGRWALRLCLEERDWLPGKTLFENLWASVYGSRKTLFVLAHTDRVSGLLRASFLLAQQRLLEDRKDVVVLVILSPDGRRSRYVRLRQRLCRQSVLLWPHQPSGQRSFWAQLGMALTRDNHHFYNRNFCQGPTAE
Summary of the method: as §1

Compound	IC50 (human TLR7) [nM]	IC50 (human TLR8) [nM]	IC50 (human TLR9) [nM]
Cc1cc(-c2[nH]nc(C(N)=O)c2C(C)C)cn2ncnc12 [Example 29]	18.4	1.91	216
Cc1cc(-c2[nH]nc(-c3ccc(C(N)=O)cc3)c2C(C)C)cn2ncnc12 [Example 229]	7.1	3.71	4960
Cc1cc(-c2[nH]nc(-c3ccc(C4CN(C(C)C)C4)cc3)c2C(C)C)cn2ncnc12 [Example 327]	7.5	7.11	15800
COc1c(C)c(-c2[nH]nc(-c3ccc(C4CCN(CC5CCOCC5)CC4)cn3)c2C(C)C)cn2ncnc12 [Example 388]	22.4	37.4	16100
COc1cc(-c2[nH]nc(-c3ccc(C4CCN(CC(N)=O)CC4)cn3)c2C(C)C)cn2ncnc12 [Example 393]	77.6	140	> 50000
COc1cc(-c2[nH]nc(-c3cnc(C4CCN(CCF)CC4)cn3)c2C(C)C)cn2ncnc12 [Example 398]	137	365	> 50000
Cc1cc(-c2[nH]nc(-c3ncc(C4CCNCC4)cn3)c2C(C)C)cn2ncnc12 [Example 341]	7.86	9	16500
Cc1cc(-c2[nH]nc(C(=O)NC3CN(CC4(C)COC4)C3)c2C(C)C)cn2ncnc12 [Example 154]	11.9	3.33	9310
Cc1cc(-c2[nH]nc(C(=O)N[C@H]3CC[C@H](NCc4cccnc4)CC3)c2C(C)C)cn2ncnc12 [Example 112]	11.4	28.3	> 50000
CCN1CCC(c2ccc(-c3n[nH]c(-c4cc(C)c5ncnn5c4)c3C(C)C)cn2)CC1 [Example 360]	1220	1330	> 50000
Cc1cc(-c2[nH]nc(-c3ncc4c(n3)CCN(C)C4)c2C(C)C)cn2ncnc12 [Example 248]	8.33	12	14000
Cc1cc(-c2[nH]nc(-c3nc4c(s3)CN(CC(C)(C)O)CC4)c2C(C)C)cn2ncnc12 [Example 265]	14	3.29	47700
COc1cc(-c2[nH]nc(-c3ccc(C4CCN(C(=O)CN(C)C)CC4)cn3)c2C(C)C)cn2ncnc12 [Example 402, 2-(dimethylamino)-1-(4-(6-(4-isopropyl-5-(8-methoxy-[1,2,4]triazolo[1,5-a]pyridin-6-yl)-1H-pyrazol-3-yl)pyridin-3-yl)piperidin-1-yl)ethan-1-one]	35.1	297	> 50000
Cc1cc(-c2[nH]nc(-c3cnc(C4CCNCC4)nc3)c2C(C)C)cn2ncnc12 [Example 343]	24.1	3.3	> 50000
Cc1cc(-c2[nH]nc(-c3ccc(C4CCN(C)CC4)nc3)c2C(C)C)cn2ncnc12 [Example 359]	1120	> 3130	> 50000
CCN1CCc2nc(-c3n[nH]c(-c4cc(OC)c5ncnn5c4)c3C(C)C)sc2C1 [Example 261]	8.43	2.26	17100
Cc1cc(-c2[nH]nc(-c3ncc4c(n3)CCN(C(C)C)C4)c2C(C)C)cn2ncnc12 [Example 250]	46.8	43.6	43300

The next compounds have a lower IC50 (human TLR7) than those just listed; values first:

IC50 (human TLR7) [nM]	IC50 (human TLR8) [nM]	IC50 (human TLR9) [nM]	Compound
0.59	0.89	10400	CCN1CCOC(CNC(=O)c2n[nH]c(-c3cc(C)c4ncnn4c3)c2C(C)C)C1 (stereo not drawn) [Example 140]
5.22	20.2	> 50000	CCN1CCC(c2ccc(-c3n[nH]c(-c4cc(OC)c5ncnn5c4)c3C(C)C)cc2)CC1 [Example 315]
0.9	0.84	9110	Cc1cc(-c2[nH]nc(C(=O)N[C@H]3CC[C@@H](N(C)C)CC3)c2C(C)C)cn2ncnc12 [Example 84]
1.98	2.81	5600	Cc1ncc(CN[C@H]2CC[C@H](NC(=O)c3n[nH]c(-c4cc(C)c5ncnn5c4)c3C(C)C)CC2)cn1 [Example 104]
1.69	4.36	42800	Cc1cc(-c2[nH]nc(C(=O)NCC3CN(C4COC4)CCO3)c2C(C)C)cn2ncnc12 (stereo not drawn) [Example 136]
2.98	0.38	6650	Cc1cc(-c2[nH]nc(C3CCC(N4CCC(N(C)C)CC4)CC3)c2C(C)C)cn2ncnc12 (single isomer, unassigned) [Example 293]
2.97	33.7	3930	Cc1cc(-c2[nH]nc(C(=O)N[C@H]3CC[C@H](NCC4CCOCC4)CC3)c2C(C)C)cn2ncnc12 [Example 111]
6.67	4.19	14400	Cc1cc(-c2[nH]nc(-c3ccc(C4CCN(C)CC4)cc3)c2C(C)C)cn2ncnc12 [Example 309]
1.21	8.29	13400	COCCN(C)C1CCC(NC(=O)c2n[nH]c(-c3cc(C)c4ncnn4c3)c2C(C)C)CC1 (stereo not drawn) [Example 128]
